The text below walks through data of patent US20250382303A1, “NOVEL COMPOUND AS NADPH OXIDASE 2 INHIBITOR AND PHARMACEUTICAL COMPOSITION CONTAINING SAME” (DONGGUK UNIVERSITY INDUSTRY-ACADEMIC COOPERATION FOUNDATION, priority 2022, published 2025).

Some results are limits rather than exact numbers.

One assay concerns the target T1, NOX2 (Homo sapiens, UniProt P04839).
T1 construct: Used for the NOX2 activity assay was human leukemia 60 cells (HL-60), which are widely, universally used to assess NOX2 activity; endogenous in cells
T1 sequence (P04839 2-570 limits assumed): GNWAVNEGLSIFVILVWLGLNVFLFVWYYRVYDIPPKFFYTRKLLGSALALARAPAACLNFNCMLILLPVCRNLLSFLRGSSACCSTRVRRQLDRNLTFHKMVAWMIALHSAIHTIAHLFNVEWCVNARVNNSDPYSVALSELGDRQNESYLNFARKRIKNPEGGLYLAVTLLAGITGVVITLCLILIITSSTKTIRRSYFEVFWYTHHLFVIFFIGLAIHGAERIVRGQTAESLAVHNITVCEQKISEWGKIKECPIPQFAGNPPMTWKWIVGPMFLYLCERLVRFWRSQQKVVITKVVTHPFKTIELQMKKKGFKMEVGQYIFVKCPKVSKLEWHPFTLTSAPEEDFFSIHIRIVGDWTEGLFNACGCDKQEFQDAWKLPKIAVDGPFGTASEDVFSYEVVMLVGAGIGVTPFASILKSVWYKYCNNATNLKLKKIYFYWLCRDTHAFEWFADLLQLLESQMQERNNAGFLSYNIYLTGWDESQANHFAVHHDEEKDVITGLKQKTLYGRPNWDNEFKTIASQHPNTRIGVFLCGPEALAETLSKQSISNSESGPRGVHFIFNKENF
T1 sequence (P13498 2-195 partner limits assumed): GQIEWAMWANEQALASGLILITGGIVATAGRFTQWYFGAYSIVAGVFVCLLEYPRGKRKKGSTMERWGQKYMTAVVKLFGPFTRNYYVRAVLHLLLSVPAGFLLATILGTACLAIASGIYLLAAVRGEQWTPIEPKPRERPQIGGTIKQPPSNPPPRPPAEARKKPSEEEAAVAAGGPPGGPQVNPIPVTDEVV
In words: NOX2 activity assay: PMA-induced ROS in ATRA-differentiated HL-60 cells (WST-1 or Amplex Red/HRP probe). To be noted: FIG. 1. In kind it is cell-based. How it is done:
NOX activity was evaluated by measuring the reactive oxygen species (ROS) produced by NOX. The probes that were used to measure ROS were water soluble tetrazolium-1 (WST-1, superoxide-specific colorimetric probe) and Amplex Red/horseradish peroxidase (AR/HRP, hydrogen peroxide-specific fluorometric probe), and the concentration of the probes used was […]. For WST-1, the change in the absorbance at 450 nm was measured, and, for AR, the change in fluorescence signals was measured at 560 nm and 585 nm, respectively for excitation wavelength (Ex) and emission wavelength (Em). The optical signal was measured using the SpectraMax M3 microplate reader from Molecular Devices at 37° C. for 60 minutes.
Used for the NOX2 activity assay was human leukemia 60 cells (HL-60), which are widely, universally used to assess NOX2 activity. 1×10^5 cells/mL of HL-60 were treated with […] all-trans-retinoic acid (ATRA) for 4 days to induce differentiation. Differentiated HL-60 (diff. HL-60) was centrifuged at 200 g for 5 minutes and washed twice with HBSS. Differentiation was induced to reach 3×10^4 cells/well on a 96-well plate (diff). HL-60 was seeded. The test material was treated to cells and left in a 37° C. incubator for 60 minutes. As a control group, the same concentration of DMSO, which is the vehicle of the test material, was used. 200 ng/mL phorbol 12-myristate 13-acetate (PMA) was used as the NOX2 activator, and the production amount of ROS induced by PMA was measured for 60 minutes. […] diphenyleneiodonium (DPI), which is well known to inhibit NOX, was used as a positive control group to evaluate whether the NOX2 activity tester properly operates.
In the case of `CC12CC(NC(=O)N1c1cccc(C(=O)N3CCc4ccccc4C3)c1)c1cc(-c3ccsc3)ccc1O2` (stereo not shown) [Compound 26a, 2-Methyl-3-(3-(1,2,3,4-tetrahydroisoquinoline-2-carbonyl)phenyl)-8-(thiophen-3-yl)-5,6-dihydro-2H-2,6-methanobenzo[g][1,3,5]oxadiazocin-4(3H)-one], the “concentration dependence of NOX2 inhibition” value was “inhibited NOX2 activity in a concentration-dependent manner”.

The assay is the same for the next values; noted with them: WST-1; comment on Table 1.
Regarding `CC12CC(NC(=O)N1c1cccc(C(=O)N3CCc4ccccc4C3)c1)c1cc(-c3ccsc3)ccc1O2` (stereo not shown) [Compound 26a, 2-Methyl-3-(3-(1,2,3,4-tetrahydroisoquinoline-2-carbonyl)phenyl)-8-(thiophen-3-yl)-5,6-dihydro-2H-2,6-methanobenzo[g][1,3,5]oxadiazocin-4(3H)-one], the “NOX2 inhibitory ability, verbal rating” value was “excellent inhibitory ability”.

The assay is the same for the next values; noted with them: WST-1 probe; differentiated HL-60, 200 ng/mL PMA; read-out: Inhibitory ability (NOX2).
As to `CC12CC(NC(=O)N1c1cccc(C(=O)N3CCc4ccccc4C3)c1)c1ccccc1O2` (racemic) [Compound 8a, 2-Methyl-3-(3-(1,2,3,4-tetrahydroisoquinoline-2-carbonyl)phenyl)-5,6-dihydro-2H-2,6-methanobenzo[g][1,3,5]oxadiazocin-4(3H)-one], the IC50 lay within 1 to 10 µM.

Regarding `CC12CC(NC(=O)N1c1cccc(C(=O)N3CCc4ccccc4C3)c1)c1cc(F)ccc1O2` (stereo not shown) [Compound 25d, 8-Fluoro-2-methyl-3-(3-(1,2,3,4-tetrahydroisoquinoline-2-carbonyl)phenyl)-5,6-dihydro-2H-2,6-methanobenzo[g][1,3,5]oxadiazocin-4(3H)-one], the IC50 was 1 to 10 µM.

On to `CC12CC(NC(=O)N1c1cccc(C(=O)N3CCc4cc(F)ccc4C3)c1)c1cc(Br)ccc1O2` (stereo not shown) [Compound 27b, 8-Bromo-3-(3-(6-fluoro-1,2,3,4-tetrahydroisoquinoline-2-carbonyl)phenyl)-2-methyl-5,6-dihydro-2H-2,6-methanobenzo[g][1,3,5]oxadiazocin-4(3H)-one], for which the IC50 is 1 to 10 µM.

On to `CC12CC(NC(=O)N1c1cccc(C(=O)N3CCc4ccccc4C3)c1)c1cc(-c3ccsc3)ccc1O2` (stereo not shown) [Compound 26a, 2-Methyl-3-(3-(1,2,3,4-tetrahydroisoquinoline-2-carbonyl)phenyl)-8-(thiophen-3-yl)-5,6-dihydro-2H-2,6-methanobenzo[g][1,3,5]oxadiazocin-4(3H)-one], for which the IC50 is under 1 µM.

With `CC12CC(NC(=O)N1c1cccc(C(=O)NCCc3ccc(C(F)(F)F)cc3)c1)c1ccccc1O2` (racemic) [Compound 8d, 3-(2-Methyl-4-oxo-5,6-dihydro-2H-2,6-methanobenzo[g][1,3,5]oxadiazocin-3(4H)-yl)-N-(4-(trifluoromethyl)phenethyl)benzamide], the IC50 was in the range of 1 to 10 µM.

With `CC12CC(NC(=O)N1c1cccc(C(=O)N3CCc4ncccc4C3)c1)c1cc(-c3ccoc3)ccc1O2` (stereo not shown) [Compound 28k, 8-(Furan-3-yl)-2-methyl-3-(3-(5,6,7,8-tetrahydro-1,6-naphthyridine-6-carbonyl)phenyl)-5,6-dihydro-2H-2,6-methanobenzo[g][1,3,5]oxadiazocin-4(3H)-one], the IC50 was over 10 µM.

As for `CC12CC(NC(=O)N1c1cccc(C(=O)N3CCc4ccccc4C3)c1)c1cc(Cl)ccc1O2` (stereo not shown) [Compound 25c, 8-Chloro-2-methyl-3-(3-(1,2,3,4-tetrahydroisoquinoline-2-carbonyl)phenyl)-5,6-dihydro-2H-2,6-methanobenzo[g][1,3,5]oxadiazocin-4(3H)-one], the IC50 was 1 to 10 µM.

`COc1cccc2c1OC1(C)CC2NC(=O)N1c1cccc(C(=O)N2CCc3ccccc3C2)c1` (stereo not shown) [Compound 25g, 10-Methoxy-2-methyl-3-(3-(1,2,3,4-tetrahydroisoquinoline-2-carbonyl)phenyl)-5,6-dihydro-2H-2,6-methanobenzo[g][1,3,5]oxadiazocin-4(3H)-one]: the IC50 is over 10 µM.

As to `C[C@]12C[C@H](NC(=O)N1c1cccc(C(=O)N3CCc4ccccc4C3)c1)c1ccccc1O2` [Compound 10c, (2S,6S)-2-Methyl-3-(3-(1,2,3,4-tetrahydroisoquinoline-2-carbonyl)phenyl)-5,6-dihydro-2H-2,6-methanobenzo[g][1,3,5]oxadiazocin-4(3H)-one], the IC50 is 1 to 10 µM.

`CC12CC(NC(=O)N1c1cccc(-c3cccc(C#N)c3)c1)c1ccccc1O2` (stereo not shown) [Compound 15a, 3′-(2-Methyl-4-oxo-5,6-dihydro-2H-2,6-methanobenzo[g][1,3,5]oxadiazocin-3(4H)-yl)-[1,1′-biphenyl]-3-carbonitrile]: the IC50 was over 10 µM.

Turning to `CN1C(=O)N(c2cccc(C(=O)N3CCc4ccccc4C3)c2)C2(C)CC1c1ccccc1O2` (stereo not shown) [Compound 9, 2,5-Dimethyl-3-(3-(1,2,3,4-tetrahydroisoquinoline-2-carbonyl)phenyl)-5,6-dihydro-2H-2,6-methanobenzo[g][1,3,5]oxadiazocin-4(3H)-one], the IC50 is over 10 µM.

On to `CC12CC(NC(=O)N1c1cccc(C(=O)NCc3ccc(C(F)(F)F)cc3)c1)c1ccccc1O2` (racemic) [Compound 8c, 3-(2-Methyl-4-oxo-5,6-dihydro-2H-2,6-methanobenzo[g][1,3,5]oxadiazocin-3(4H)-yl)-N-(4-(trifluoromethyl)benzyl)benzamide], for which the IC50 is over 10 µM.

With `COc1cc2c(cc1OC)CN(C(=O)c1cccc(N3C(=O)NC4CC3(C)Oc3ccccc34)c1)CC2` (racemic) [Compound 8b, 3-(3-(6,7-Dimethoxy-1,2,3,4-tetrahydroisoquinoline-2-carbonyl)phenyl)-2-methyl-5,6-dihydro-2H-2,6-methanobenzo[g][1,3,5]oxadiazocin-4(3H)-one], the IC50 is over 10 µM.

For the compound `CC12CC(NC(=O)N1c1cccc(C(=O)N3CCc4ccccc4C3)c1)c1ccc(-c3ccsc3)cc1O2` (stereo not shown) [Compound 26i, 2-Methyl-3-(3-(1,2,3,4-tetrahydroisoquinoline-2-carbonyl)phenyl)-9-(thiophen-3-yl)-5,6-dihydro-2H-2,6-methanobenzo[g][1,3,5]oxadiazocin-4(3H)-one], the IC50 lay in the range of 1 to 10 µM.

Consider `C[C@@]12C[C@@H](NC(=O)N1c1cccc(C(=O)NCc3ccc(Br)cc3)c1)c1ccccc1O2` [Compound 10b, N-(4-Bromobenzyl)-3-((2R,6R)-2-methyl-4-oxo-5,6-dihydro-2H-2,6-methanobenzo[g][1,3,5]oxadiazocin-3(4H)-yl)benzamide], for which the IC50 was over 10 µM.

`CC12CC(NC(=O)N1c1cccc(C(=O)NCc3cccnc3)c1)c1ccccc1O2` (racemic) [Compound 8f, 3-(2-Methyl-4-oxo-5,6-dihydro-2H-2,6-methanobenzo[g][1,3,5]oxadiazocin-3(4H)-yl)-N-(pyridin-3-ylmethyl)benzamide]: the IC50 was over 10 µM.

`CC12CC(NC(=O)N1c1cccc(C(=O)N3CCc4ccc(F)cc4C3)c1)c1cc(-c3ccoc3)ccc1O2` (stereo not shown) [Compound 28a, 3-(3-(7-Fluoro-1,2,3,4-tetrahydroisoquinoline-2-carbonyl)phenyl)-8-(furan-3-yl)-2-methyl-5,6-dihydro-2H-2,6-methanobenzo[g][1,3,5]oxadiazocin-4(3H)-one]: the IC50 lay in the range of 1 to 10 µM.

Consider `CC12CC(NC(=O)N1c1cccc(-c3ccco3)c1)c1ccccc1O2` (stereo not shown) [Compound 15b, 3-(3-(Furan-2-yl)phenyl)-2-methyl-5,6-dihydro-2H-2,6-methanobenzo[g][1,3,5]oxadiazocin-4(3H)-one], for which the IC50 is over 10 µM.

Consider `CC12CC(NC(=O)N1c1cccc(C(=O)N3CCc4ccccc4C3)c1)c1ccc(F)cc1O2` (stereo not shown) [Compound 25k, 9-Fluoro-2-methyl-3-(3-(1,2,3,4-tetrahydroisoquinoline-2-carbonyl)phenyl)-5,6-dihydro-2H-2,6-methanobenzo[g][1,3,5]oxadiazocin-4(3H)-one], for which the IC50 is over 10 µM.

Tested on in the next assay: not listed separately
In words: Non-specific free radical scavenging: superoxide produced by xanthine/xanthine oxidase, measured by WST-1. Type of assay: biochemical. The note with it: compound at 10 or 30 μM. As to the method: The scavenging activity that the effective compound in 10 or 30 μM scavenges the superoxide produced by xanthine/xanthine oxidase was measured by WST-1, the results of which are shown in Table 2.
Turning to `CC12CC(NC(=O)N1c1cccc(C(=O)N3CCc4ccccc4C3)c1)c1ccccc1O2` (racemic) [Compound 8a, 2-Methyl-3-(3-(1,2,3,4-tetrahydroisoquinoline-2-carbonyl)phenyl)-5,6-dihydro-2H-2,6-methanobenzo[g][1,3,5]oxadiazocin-4(3H)-one], the “scavenging of superoxide produced by xanthine/xanthine oxidase” value is “did not exhibit significant peroxide scavenging ability”.
